Source: patent US20190152992A1, “BENZODIOXANE DERIVATIVES AND THEIR PHARMACEUTICAL USE” (Orion Corporation, priority 2016, published 2019)
Read-outs that look alike come from different tables or passages of the source.

How the values were obtained:
human alpha2A receptors [1] = target: T1, human alpha2A receptors (Homo sapiens, UniProt P08913); settings: for IC50: read-out: Alpha 2A Adrenaline IC50, antagonism, cells stimulated with adrenaline, CHO cells stably transfected with human alpha2A, cotransfected with Gα16, intracellular calcium; for Kb: read-out: Alpha 2A Adrenaline Kb, Kb calculated from IC50 with the Cheng-Prusoff equation, adrenaline as agonist, CHO cells, human alpha2A
T1 sequence (P08913 1-465): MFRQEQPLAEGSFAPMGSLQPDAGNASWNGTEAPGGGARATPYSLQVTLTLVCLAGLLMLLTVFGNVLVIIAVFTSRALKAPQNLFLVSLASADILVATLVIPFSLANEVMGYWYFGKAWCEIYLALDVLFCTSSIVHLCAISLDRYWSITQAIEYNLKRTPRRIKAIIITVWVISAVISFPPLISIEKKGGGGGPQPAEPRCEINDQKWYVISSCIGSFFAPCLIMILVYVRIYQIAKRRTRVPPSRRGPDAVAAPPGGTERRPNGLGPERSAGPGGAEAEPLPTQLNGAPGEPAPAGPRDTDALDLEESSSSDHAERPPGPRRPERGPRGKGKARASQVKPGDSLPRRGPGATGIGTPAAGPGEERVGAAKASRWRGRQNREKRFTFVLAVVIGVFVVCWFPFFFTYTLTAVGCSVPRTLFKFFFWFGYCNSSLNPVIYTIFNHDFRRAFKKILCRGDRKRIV

human alpha2C receptors = target: T2, human alpha2C receptors (Homo sapiens, UniProt P18825); assay: Determination of alpha2C antagonistic activity in vitro (FLIPR calcium assay); settings: for Kb: Kb calculated from IC50 with the Cheng-Prusoff equation, adrenaline as agonist, CHO cells, human alpha2C
T2 sequence (P18825 1-462): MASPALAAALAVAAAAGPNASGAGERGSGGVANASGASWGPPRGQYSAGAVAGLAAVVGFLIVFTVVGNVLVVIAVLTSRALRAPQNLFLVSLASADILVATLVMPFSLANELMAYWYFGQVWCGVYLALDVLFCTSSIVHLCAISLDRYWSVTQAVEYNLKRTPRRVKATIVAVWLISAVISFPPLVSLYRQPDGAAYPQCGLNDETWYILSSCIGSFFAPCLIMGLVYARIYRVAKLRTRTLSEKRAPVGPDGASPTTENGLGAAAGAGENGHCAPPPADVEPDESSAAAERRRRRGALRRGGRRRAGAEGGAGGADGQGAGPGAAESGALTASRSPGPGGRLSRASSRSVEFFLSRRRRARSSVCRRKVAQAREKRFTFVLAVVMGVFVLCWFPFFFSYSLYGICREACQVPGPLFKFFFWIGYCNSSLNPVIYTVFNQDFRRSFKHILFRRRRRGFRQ

human alpha2A receptors [2] = target: T1, human alpha2A receptors; assay: cell-based
[3] = read-out: Alpha 2C Adrenaline IC50, antagonism, cells stimulated with adrenaline, CHO cells stably transfected with human alpha2C, cotransfected with Gα16, intracellular calcium
[4] = read-out: Alpha 2C Adrenaline Kb

IC50 (human alpha2A receptors [1]) [nM] | Kb (human alpha2A receptors [1]) [nM] | IC50 (human alpha2C receptors) [nM] | Kb (human alpha2C receptors; Alpha 2C Adrenaline Kb) [nM] | IC50 (human alpha2A receptors [2]) [nM] | Kb (human alpha2A receptors [2]) [nM] | Molecule | IC50 (human alpha2C receptors; [3]) [nM] | Kb (human alpha2C receptors; [4]) [nM]
1560 | 70 | – | – | – | – | (R)-1-((S)-1-(((S)-2,3-Dihydrobenzo[b][1,4]dioxin-2-yl)methyl)piperidin-3-yl)-3-methyl-3-phenylpyrrolidine-2,5-dione and (S)-1-((S)-1-(((S)-2,3-dihydrobenzo[b][1,4]dioxin-2-yl)methyl)piperidin-3-yl)-3-methyl-3-phenylpyrrolidine-2,5-dione [example 36] | 0.908 | 0.091
> 10000 | > 449 | 0.15 | 0.02 | – | – | CC1CCN([C@H]2CCCN(C[C@H]3COc4ccccc4O3)C2)C1=O (single isomer, unassigned; diastereomer 2) [example 99] | – | –
– | – | < 0.1 | < 0.01 | 13 | 1 | CC1(c2ccccc2)NC(=O)N([C@H]2CCCN(C[C@H]3COc4ccccc4O3)C2)C1=O (stereo partly drawn) [example 74, 3-((S)-1-(((S)-2,3-Dihydrobenzo[b][1,4]dioxin-2-yl)methyl)piperidin-3-yl)-5-methyl-5-phenylimidazolidine-2,4-dione] | – | –
– | – | 0.294 | 0.03 | > 10000 | > 449 | c1ccc2c(c1)OC[C@H](CN1CCC[C@H](n3cnc4cncnc43)C1)O2 [example 161, 9-((S)-1-(((S)-2,3-Dihydrobenzo[b][1,4]dioxin-2-yl)methyl)-piperidin-3-yl)-9H-purine] | – | –

Molecule | IC50 (human alpha2A receptors [1]) [nM] | Kb (human alpha2A receptors [1]) [nM] | IC50 (human alpha2C receptors) [nM] | Kb (human alpha2C receptors; Alpha 2C Adrenaline Kb) [nM] | IC50 (human alpha2A receptors [2]) [nM] | Kb (human alpha2A receptors [2]) [nM] | IC50 (human alpha2C receptors; [3]) [nM] | Kb (human alpha2C receptors; [4]) [nM]
O=C1NCCCN1[C@H]1CCCN(C[C@H]2COc3ccccc3O2)C1 [compound 53, 1-((S)-1-(((S)-2,3-Dihydrobenzo[b][1,4]dioxin-2-yl)methyl)piperidin-3-yl)tetrahydropyrimidin-2(1H)-one] | > 10000 | > 449 | – | – | – | – | 1.04 | 0.105
